One series has as its system HT-29. In words: Cytotoxicity against human HT-29 cells. The conditions noted are these: read-out: ED50 (the source's name). In kind it is functional.
In another series the test system is A549. Briefly: Cytotoxicity against human A549 cells. The format is functional. To be noted: for EC50: Homo sapiens, A549, read-out: ED50 (the source's name).
Series [1] deals with MCF7. Briefly: Cytotoxicity against human MCF7 cells. In kind it is functional. To be noted: for EC50: Homo sapiens, MCF7, read-out: ED50 (the source's name).
Series [2] can be described thus: Toxicity against brine shrimp. In kind it is organism-based. To be noted: artemia, in vivo; read-out: ED50 (the source's name).
For series [3], the system named is MCF7. In words: Selectivity index, ratio of IC50 for human A549 cells to IC50 for human MCF7 cells. The format is functional.
Series [4] concerns MCF7. Briefly: Selectivity index, ratio of IC50 for human HT-29 cells to IC50 for human MCF7 cells. The format is functional.

≈ marks a conversion by molar mass, not a printed value.

Regarding `CCCCCCCCCC[C@H](O)[C@H]1CC[C@H]([C@H]2CC[C@H]([C@H](O)CCCCCCCCCC[C@@H]3CC(CC(C)=O)C(=O)O3)O2)O1` (some centres undefined) [BULLATACINONE], in the series with HT-29, the EC50 is less than 0.001 µg/mL. Also, the values for the ED50 in the series with A549 and in the series on MCF7 [1] were 1.44 ×10⁻⁴ ug/ml and less than 1 ×10⁻⁷ ug/ml, respectively.

For the compound `COc1cccc2c1C(=O)c1c(O)c3c(c(O)c1C2=O)C[C@@](O)(C(=O)CO)C[C@@H]3O[C@H]1C[C@H](N)[C@H](O)[C@H](C)O1` [DOXORUBICIN], the EC50 in the series with HT-29 is 0.0301 µg/mL (≈ 0.0554 µM); in the series on A549, 0.00696 µg/mL (≈ 0.0128 µM); in the series with MCF7 [1], 0.029 µg/mL (≈ 0.0534 µM).

As for `CCCCCCCCCCCC[C@H](O)[C@@H]1CC[C@@H]([C@@H](O)CCCCCC(=O)CCCCC2CC(CC(C)=O)C(=O)O2)O1` (some centres undefined) [SQUAMONE], the EC50 with HT-29 came out at 1.5 µg/mL (≈ 2.52 µM). Also, the LC50 in series [2] is 2.1 µg/mL (≈ 3.53 µM).

For `CCCCCCCCCCCC[C@H](O)[C@@H]1CC[C@@H]([C@@H](O)CCCCCC(O)CCCCC2CC(CC(C)O)C(=O)O2)O1` (some centres undefined) [TETRAHYDROSQUAMONE], the “Ratio ED50” value in the series on MCF7 [3] and in the series on MCF7 [4] was 100 each time. The EC50 worked out at 0.298 µg/mL (≈ 0.498 µM) in the series with HT-29, 0.141 µg/mL (≈ 0.235 µM) in the series with A549 and 0.00989 µg/mL (≈ 0.0165 µM) in the series with MCF7 [1]. The LC50 in series [2] was found to be 2.7 µg/mL (≈ 4.51 µM).

Values taken from ChEMBL document CHEMBL1151139, “Bullatacin, bullatacinone, and squamone, a new bioactive acetogenin, from the bark of Annona squamosa” (J Nat Prod, 1990).
